This is an account of results in patent US12162934B2, “Gremlin-1 antagonist for the prevention and treatment of cancer” (UCB BIOPHARMA SRL, priority 2018, dated 2024).

For assay [1], the system named is MDA-MB-231 human breast cancer cells. Briefly: MDA-MB-231 breast cancer model in NSG mice (BLI). Type of assay: in vivo. The note with it: vs AbA33, p>0.05. As to the method:
MDA-MB-231: 5-week old NOD/SCiD/gamma (NSG) immunocompromised mice were subcutaneously (s.c) administered two 30 mg/kg doses of anti-Grem1 antibody UCB6114 or IgG control, AbA33, the week prior to tumour cell inoculation. 1×10^5 luciferase expressing MDA-MB-231 human breast cancer cells were injected systemically via the CA.
Treatment continued twice weekly for the duration of the study. At weekly intervals, mice were administered 150 mg/kg luciferin intraperitoneally (i.p) and imaged using the Xenogen IVIS Bioluminescence Imaging System, and tumour burden was quantitated using Living Image software. The study ended on day 13 and day 22 post-tumour cell injection for the PyMT-B01 and MDA-MB-231 models respectively, according to animal ethics requirements. Organs were dissected upon culling animals and BLI imaged ex vivo for analysis of tumour metastasis.

The subject of assay [2] is PC-3 prostate cancer cells. Briefly: PC-3 prostate cancer model in NSG mice (BLI). Type of assay: in vivo, human. The following applies: vs AbA33. The protocol: The PC-3 human prostate cancer cell line was obtained from ATCC (Manassas, VA, USA). The cell line expresses luciferase produced by retroviral expression of the SFG-NES-TGL vector (Ponomarev, V., et al. 2004). Cancer cells were cultured in RPMI1640 (Life Technologies, Australia) supplemented with 10% foetal bovine serum (FBS, Life Technologies, Australia), 100 IU/mL penicillin (Life Technologies, Australia), 100 μg/mL streptomycin (Life Technologies, Australia) and 25 mM HEPES (Life Technologies, Australia) at 37° C. in a 5% CO2 humidified atmosphere.
5-week old NOD.Cg-Prkd^scid Il2rg^tm1Wjl/SzJ (NSG) immunocompromised mice were subcutaneously (s.c) administered two 30 mg/kg doses of anti-Grem1 antibody (UCB6114) or IgG control, AbA33, the week prior to tumour cell inoculation. 5×10^5 luciferase expressing PC-3 […] prostate cancer cells were injected systemically via the caudal artery (CA).
Antibody treatment continued twice weekly for the duration of the study. A t weekly intervals, mice were administered 150 mg/kg luciferin intraperitoneally (i.p) and imaged using the Xenogen IVIS Bioluminescence Imaging System, and tumour burden was quantitated using Living Image software (PerkinElmer, MA, USA). At the end of each study, organs were dissected upon culling animals and BLI imaged ex vivo for analysis of tumour metastasis.

The subject of assay [3] is MDA-MB-231-TXSA cells. Briefly: Proliferation assay of MDA-MB-231-TXSA cells in hypoxia (luciferase). Type of assay: cell-based, human. The following applies: rhGrem1 0-1000 ng/ml. The protocol: Luciferase expressing MDA-MB-231-TXSA cells were seeded in 96-well microtiter plates (1×10^4 cells/well). Cells were cultured either under normoxic or hypoxic conditions and allowed to adhere overnight. Cells were then serum starved for 6 hrs before treatment with increasing concentrations of rhGrem1 protein (0-1000 ng/ml). At 24 and 48 hr time points, luciferase expression was evaluated and used as a surrogate measure of cell number. Briefly, cells were washed in 1×PBS, and subsequently lysed in cell culture lysis buffer (Promega). Luciferase Assay Reagent (5 mM MgCl2, 30 mM HEPES, 150 μM ATP, […] Coenzyme A and 150 μg/mL D-luciferin (Biosynth AG, Staad, Switzerland)) was added to cell lysates, and luminescence was quantified immediately using a luminometer plate reader (Wallac 3000).

“UCB6114: novel anti-Grem1 neutralising monoclonal antibody”: the “Mean tumour burden (BLI)” value in assay [1] (day 22) was “lower”. Moreover, the “Mean tumour burden for lung metastasis (ex vivo BLI)” value in assay [1] is “reduction in mean tumour burden”. For the same molecule, the “Whole animal tumour burden (BLI)” value in assay [2] (30 mg/kg s.c. twice weekly) is “significant reduction”. In addition, in assay [2], the “Hindlimb tumour burden (ex vivo BLI)” value is given as “downward trend”, the “Liver tumour burden (ex vivo BLI)” value was “significant reduction” and the “Lung tumour burden (ex vivo BLI)” value is reported as “downward trend”.

B1: rhGrem1: rhGrem1 protein used to stimulate breast cancer cells (protein)
chain: KKKGSQGAIPPPDKAQHNDSEQTQSPQQPGSRNRGRGQGRGTAMPGEEVLESSQEALHVTERKYLKRDWCKTQPLKQTIHEEGCNSRTIINRFCYGQCNSFYIPRHIRKEEGSFQSCSFCKPKKFTTMMVTLNCPELQPPTKKKRVTRVKQCRCISIDLD
For the molecule B1, the “Maximal increase in MDA-MB-231-TXSA proliferation, hypoxic compared to normoxic conditions” value in assay [3] (24 hr) came out at 1.5 fold; in assay [3] (48 hr) it was 1.7 fold.
